Assay [1] has as its target Cyclin-dependent kinase 6 (Homo sapiens, UniProt Q00534).
For assay [2], the target named is Casein kinase I isoform delta (Homo sapiens, UniProt P48730).
For the next assay, the target named is T1, dCTP pyrophosphatase 1 (Homo sapiens, UniProt Q9H773).
T1 sequence (Q9H773 whole entry): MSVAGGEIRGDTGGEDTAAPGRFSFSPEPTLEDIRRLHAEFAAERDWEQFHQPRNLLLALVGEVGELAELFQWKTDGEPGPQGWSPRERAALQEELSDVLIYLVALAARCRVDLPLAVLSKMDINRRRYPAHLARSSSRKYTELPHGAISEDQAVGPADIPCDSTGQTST

The target of assay [3] is Tyrosine-protein kinase Fer (Homo sapiens, UniProt P16591).
In assay [4] the target is Inosine-5'-monophosphate dehydrogenase 2 (Homo sapiens, UniProt P12268).
The target in assay [5] is MAP/microtubule affinity-regulating kinase 3 (Homo sapiens, UniProt P27448).
The target in assay [6] is T2, RNA cytidine acetyltransferase (Homo sapiens, UniProt Q9H0A0).
T2 sequence (Q9H0A0 whole entry): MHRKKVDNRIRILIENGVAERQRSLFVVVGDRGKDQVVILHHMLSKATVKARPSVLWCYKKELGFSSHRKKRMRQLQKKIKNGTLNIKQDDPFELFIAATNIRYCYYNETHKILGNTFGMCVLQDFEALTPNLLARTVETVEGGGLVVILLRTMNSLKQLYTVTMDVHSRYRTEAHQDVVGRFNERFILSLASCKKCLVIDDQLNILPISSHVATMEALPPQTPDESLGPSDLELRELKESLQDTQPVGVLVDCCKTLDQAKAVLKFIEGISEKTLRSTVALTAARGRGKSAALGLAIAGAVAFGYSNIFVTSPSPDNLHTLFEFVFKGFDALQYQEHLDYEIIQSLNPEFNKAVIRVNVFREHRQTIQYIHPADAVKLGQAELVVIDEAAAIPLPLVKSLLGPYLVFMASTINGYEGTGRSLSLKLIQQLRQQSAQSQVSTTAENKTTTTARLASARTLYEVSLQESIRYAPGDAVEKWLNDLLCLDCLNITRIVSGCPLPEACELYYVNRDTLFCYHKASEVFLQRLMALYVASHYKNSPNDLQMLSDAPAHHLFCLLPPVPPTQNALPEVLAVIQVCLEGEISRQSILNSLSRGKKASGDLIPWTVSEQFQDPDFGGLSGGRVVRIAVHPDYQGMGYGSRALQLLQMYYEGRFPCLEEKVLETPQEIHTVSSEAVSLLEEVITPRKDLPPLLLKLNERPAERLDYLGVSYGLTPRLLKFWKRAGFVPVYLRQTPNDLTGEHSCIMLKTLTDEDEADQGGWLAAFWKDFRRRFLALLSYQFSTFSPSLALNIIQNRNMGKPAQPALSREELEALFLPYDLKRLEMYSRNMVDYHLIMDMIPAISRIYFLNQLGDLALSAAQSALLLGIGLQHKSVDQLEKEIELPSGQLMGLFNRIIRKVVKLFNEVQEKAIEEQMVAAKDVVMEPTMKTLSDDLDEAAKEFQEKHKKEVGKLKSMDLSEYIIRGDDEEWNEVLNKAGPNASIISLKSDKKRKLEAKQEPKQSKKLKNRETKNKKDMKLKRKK

In assay [7] the target is Platelet-derived growth factor receptor beta (Homo sapiens, UniProt P09619).
For the next assay, the target named is T3, Septin-9 (Homo sapiens, UniProt Q9UHD8).
T3 sequence (Q9UHD8 whole entry): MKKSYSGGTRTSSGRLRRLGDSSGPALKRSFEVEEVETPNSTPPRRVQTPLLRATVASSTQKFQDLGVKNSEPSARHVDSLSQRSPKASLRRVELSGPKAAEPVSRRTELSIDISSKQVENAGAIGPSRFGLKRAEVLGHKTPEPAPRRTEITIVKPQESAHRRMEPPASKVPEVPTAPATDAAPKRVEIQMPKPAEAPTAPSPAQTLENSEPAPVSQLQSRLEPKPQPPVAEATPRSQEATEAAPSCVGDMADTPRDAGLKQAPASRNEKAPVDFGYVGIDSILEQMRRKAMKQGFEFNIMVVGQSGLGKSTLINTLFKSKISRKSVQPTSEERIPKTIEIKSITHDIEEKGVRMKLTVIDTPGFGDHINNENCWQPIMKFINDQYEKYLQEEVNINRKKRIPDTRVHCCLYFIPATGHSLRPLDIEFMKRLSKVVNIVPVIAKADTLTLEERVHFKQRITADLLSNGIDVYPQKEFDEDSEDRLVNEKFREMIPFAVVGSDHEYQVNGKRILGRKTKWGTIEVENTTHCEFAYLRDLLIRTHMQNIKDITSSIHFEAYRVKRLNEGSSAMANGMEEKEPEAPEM

Assay [8] has as its target Structural maintenance of chromosomes protein 2 (Homo sapiens, UniProt O95347).
Assay [9] addresses T4, Succinate--CoA ligase [ADP-forming] subunit beta, mitochondrial (Homo sapiens, UniProt Q9P2R7).
T4 sequence (Q9P2R7 whole entry): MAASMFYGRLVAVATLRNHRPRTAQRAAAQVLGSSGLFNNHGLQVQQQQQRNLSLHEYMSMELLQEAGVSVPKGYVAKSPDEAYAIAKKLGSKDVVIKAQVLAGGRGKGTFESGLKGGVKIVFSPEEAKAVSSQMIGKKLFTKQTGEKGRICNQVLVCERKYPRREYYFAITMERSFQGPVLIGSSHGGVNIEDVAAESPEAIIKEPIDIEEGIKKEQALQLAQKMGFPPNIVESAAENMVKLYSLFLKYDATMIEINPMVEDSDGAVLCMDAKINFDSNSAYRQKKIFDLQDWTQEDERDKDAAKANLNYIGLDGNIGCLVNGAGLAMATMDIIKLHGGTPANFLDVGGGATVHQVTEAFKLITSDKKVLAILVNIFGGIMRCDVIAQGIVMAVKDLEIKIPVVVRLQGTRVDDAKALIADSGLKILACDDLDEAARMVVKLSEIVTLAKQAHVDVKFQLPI

The values below come from ChEMBL document CHEMBL3991601, “The target landscape of clinical kinase drugs” (Science, 2017).

Active and inactive are the calls of the source.

As usually defined, the Kd is the concentration at which binding is half-saturated.
Also: in the data inactive means no Kd found up to 30 µM.

Sequence of Cyclin-dependent kinase 6 (Q00534 whole entry, canonical isoform): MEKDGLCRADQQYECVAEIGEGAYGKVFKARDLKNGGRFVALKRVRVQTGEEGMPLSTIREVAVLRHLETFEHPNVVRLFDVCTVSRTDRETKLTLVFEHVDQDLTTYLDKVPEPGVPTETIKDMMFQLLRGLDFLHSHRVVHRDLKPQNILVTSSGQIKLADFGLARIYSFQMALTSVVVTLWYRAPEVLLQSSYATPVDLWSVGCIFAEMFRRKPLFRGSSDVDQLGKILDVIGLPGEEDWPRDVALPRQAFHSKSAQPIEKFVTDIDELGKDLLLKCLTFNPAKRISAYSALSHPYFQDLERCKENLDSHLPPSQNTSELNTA
Sequence of Platelet-derived growth factor receptor beta (P09619 whole entry): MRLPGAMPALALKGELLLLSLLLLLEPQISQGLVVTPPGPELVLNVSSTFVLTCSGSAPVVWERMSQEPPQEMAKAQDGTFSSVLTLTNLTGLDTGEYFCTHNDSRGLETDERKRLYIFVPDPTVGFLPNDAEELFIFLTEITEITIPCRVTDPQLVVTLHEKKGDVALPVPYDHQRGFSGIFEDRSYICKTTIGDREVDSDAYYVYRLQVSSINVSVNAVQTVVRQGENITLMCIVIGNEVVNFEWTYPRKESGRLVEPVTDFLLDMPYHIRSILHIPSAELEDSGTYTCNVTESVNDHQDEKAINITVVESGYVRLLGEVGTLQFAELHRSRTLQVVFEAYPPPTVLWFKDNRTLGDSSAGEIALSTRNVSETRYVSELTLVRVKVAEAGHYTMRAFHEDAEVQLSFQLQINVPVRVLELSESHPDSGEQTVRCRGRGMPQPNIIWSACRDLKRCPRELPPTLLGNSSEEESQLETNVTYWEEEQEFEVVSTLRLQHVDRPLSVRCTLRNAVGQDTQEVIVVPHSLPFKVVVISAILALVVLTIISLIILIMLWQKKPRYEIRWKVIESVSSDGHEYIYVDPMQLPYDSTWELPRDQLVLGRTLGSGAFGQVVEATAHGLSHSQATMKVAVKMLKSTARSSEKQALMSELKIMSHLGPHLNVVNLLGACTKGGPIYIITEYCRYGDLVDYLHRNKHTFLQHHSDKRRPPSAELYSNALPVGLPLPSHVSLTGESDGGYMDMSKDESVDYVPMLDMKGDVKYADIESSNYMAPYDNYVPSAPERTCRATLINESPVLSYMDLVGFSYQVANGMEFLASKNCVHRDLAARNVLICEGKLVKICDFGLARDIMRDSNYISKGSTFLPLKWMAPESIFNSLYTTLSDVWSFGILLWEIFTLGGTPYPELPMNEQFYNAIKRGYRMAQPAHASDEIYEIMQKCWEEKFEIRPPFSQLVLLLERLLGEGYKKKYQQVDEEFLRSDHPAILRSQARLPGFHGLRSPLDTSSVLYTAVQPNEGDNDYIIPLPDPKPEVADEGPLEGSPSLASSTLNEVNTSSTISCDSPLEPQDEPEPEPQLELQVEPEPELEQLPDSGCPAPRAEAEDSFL
Sequence of Casein kinase I isoform delta (P48730 whole entry, canonical isoform): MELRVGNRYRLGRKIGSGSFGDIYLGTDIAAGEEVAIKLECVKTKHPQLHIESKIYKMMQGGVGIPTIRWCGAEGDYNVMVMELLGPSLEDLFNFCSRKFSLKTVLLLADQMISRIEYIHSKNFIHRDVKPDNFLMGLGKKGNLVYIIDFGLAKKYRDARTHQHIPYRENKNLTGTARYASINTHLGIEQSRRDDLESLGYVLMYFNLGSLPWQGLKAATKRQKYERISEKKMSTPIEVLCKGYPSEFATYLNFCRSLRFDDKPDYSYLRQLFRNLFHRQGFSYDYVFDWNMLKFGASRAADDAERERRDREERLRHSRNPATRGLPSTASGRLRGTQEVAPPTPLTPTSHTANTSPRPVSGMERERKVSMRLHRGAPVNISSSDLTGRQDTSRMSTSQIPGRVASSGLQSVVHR
Sequence of MAP/microtubule affinity-regulating kinase 3 (P27448 whole entry): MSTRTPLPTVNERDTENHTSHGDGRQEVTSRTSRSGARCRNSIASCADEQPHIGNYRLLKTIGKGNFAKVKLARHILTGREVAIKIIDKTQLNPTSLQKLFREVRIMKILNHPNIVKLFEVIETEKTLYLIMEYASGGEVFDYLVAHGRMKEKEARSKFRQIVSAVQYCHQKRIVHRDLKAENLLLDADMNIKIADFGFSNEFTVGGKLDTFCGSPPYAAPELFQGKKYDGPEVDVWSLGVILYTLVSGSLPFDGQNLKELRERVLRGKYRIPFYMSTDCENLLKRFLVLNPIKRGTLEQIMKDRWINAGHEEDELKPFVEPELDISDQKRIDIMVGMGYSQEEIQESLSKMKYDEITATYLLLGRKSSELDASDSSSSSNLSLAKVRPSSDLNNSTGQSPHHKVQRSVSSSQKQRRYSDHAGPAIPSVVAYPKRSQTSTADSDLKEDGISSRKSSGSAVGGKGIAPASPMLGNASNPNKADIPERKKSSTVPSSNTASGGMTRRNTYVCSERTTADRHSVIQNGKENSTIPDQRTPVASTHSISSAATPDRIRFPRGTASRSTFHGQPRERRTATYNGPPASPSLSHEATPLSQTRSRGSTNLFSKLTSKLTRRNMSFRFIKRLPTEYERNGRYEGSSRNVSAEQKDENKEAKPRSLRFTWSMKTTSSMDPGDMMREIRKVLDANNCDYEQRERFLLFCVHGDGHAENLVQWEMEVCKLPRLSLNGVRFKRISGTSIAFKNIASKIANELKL
Sequence of Tyrosine-protein kinase Fer (P16591 whole entry): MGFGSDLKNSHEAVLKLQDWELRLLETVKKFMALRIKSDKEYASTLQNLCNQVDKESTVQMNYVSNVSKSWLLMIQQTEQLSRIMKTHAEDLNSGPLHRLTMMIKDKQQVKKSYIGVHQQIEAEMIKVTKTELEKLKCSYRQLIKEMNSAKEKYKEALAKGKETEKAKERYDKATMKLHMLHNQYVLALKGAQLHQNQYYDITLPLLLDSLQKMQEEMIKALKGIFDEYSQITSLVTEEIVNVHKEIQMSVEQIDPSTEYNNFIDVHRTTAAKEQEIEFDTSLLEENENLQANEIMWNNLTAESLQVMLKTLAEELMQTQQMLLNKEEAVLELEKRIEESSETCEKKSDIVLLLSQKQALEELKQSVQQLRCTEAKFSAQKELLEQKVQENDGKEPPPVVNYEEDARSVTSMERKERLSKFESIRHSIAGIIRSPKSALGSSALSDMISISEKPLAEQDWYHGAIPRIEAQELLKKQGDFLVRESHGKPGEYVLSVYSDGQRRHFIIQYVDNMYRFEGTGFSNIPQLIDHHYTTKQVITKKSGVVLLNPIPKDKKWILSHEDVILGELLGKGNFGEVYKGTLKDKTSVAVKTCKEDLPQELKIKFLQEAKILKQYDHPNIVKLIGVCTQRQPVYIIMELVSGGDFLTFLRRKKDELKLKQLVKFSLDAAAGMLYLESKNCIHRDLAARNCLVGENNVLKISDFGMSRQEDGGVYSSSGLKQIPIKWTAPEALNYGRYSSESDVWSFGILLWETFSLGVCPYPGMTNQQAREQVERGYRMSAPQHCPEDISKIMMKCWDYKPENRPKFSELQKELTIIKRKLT
Sequence of Structural maintenance of chromosomes protein 2 (O95347 whole entry): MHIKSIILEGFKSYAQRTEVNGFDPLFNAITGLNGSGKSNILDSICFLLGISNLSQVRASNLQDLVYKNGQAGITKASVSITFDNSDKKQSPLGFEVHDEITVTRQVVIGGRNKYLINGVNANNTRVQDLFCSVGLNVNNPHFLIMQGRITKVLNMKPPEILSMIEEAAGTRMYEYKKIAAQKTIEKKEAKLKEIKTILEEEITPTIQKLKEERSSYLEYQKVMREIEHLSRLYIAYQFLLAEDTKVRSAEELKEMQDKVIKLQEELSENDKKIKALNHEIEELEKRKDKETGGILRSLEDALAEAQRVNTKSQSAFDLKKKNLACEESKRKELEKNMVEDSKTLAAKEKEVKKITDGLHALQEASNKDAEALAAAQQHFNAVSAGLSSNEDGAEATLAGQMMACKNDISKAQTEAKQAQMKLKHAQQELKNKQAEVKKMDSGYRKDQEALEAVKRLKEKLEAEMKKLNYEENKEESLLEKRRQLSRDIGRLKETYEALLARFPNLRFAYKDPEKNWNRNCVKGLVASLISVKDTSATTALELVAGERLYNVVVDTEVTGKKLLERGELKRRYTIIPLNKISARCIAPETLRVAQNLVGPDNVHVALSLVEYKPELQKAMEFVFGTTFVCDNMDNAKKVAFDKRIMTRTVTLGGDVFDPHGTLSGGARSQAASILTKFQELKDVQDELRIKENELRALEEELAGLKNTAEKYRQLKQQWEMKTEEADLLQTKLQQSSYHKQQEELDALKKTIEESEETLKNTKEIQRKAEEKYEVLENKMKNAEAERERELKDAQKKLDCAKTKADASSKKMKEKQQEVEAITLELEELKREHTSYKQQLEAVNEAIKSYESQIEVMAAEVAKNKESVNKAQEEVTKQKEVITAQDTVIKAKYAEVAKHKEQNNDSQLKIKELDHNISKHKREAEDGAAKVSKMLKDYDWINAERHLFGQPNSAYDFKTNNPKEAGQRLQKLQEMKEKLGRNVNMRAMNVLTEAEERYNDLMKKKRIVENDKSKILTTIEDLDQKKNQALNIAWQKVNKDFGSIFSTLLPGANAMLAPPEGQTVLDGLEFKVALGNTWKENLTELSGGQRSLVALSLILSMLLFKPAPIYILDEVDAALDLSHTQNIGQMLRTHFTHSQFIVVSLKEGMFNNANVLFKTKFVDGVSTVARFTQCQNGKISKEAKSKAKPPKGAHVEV

Take `S=C(NCc1ccc2c(c1)OCO2)N1CCN(c2ncnc3c2oc2ccccc23)CC1` [AMUVATINIB]: the Kd (in assay [1]; in assay [2]; at dCTP pyrophosphatase 1; in assay [3]; in assay [4]; in assay [5]) was > 30 µM (inactive) throughout. Moreover, the Kd (in [6]; in assay [7]; on Septin-9; in [8]; in assay [9]) was > 30 µM (inactive) in each case.
As to `COc1cccc2cc(-c3nc([C@H]4CC[C@H](C(=O)O)CC4)n4ncnc(N)c34)[nH]c12` [OSI-027], the Kd (in assay [1]; in assay [2]; on dCTP pyrophosphatase 1; in assay [3]; in assay [4]; in assay [5]) was > 30 µM (inactive) in each case. The Kd (in [6]; in assay [7]; on Septin-9; in assay [8]; in assay [9]) was > 30 µM (inactive) in each case.
Turning to `O=c1[nH]c([C@@H]2CCCN2)nc2c1oc1ccc(Cl)cc12`, the Kd (in assay [1]; in [2]; at dCTP pyrophosphatase 1; in [3]; in assay [4]; in [5]) was > 30 µM (inactive) each time. For the same compound, the Kd (in assay [6]; in assay [7]; at Septin-9; in assay [8]; in assay [9]) was > 30 µM (inactive) in each case.
In the case of `O=C(O)c1ccc2c(c1)nc(Nc1cccc(Cl)c1)c1ccncc12` [SILMITASERTIB], the Kd (in assay [1]; in [2]; at dCTP pyrophosphatase 1; in assay [3]; in [4]; in assay [5]) was > 30 µM (inactive) in each case. Moreover, the Kd (in [6]; in assay [7]; at Septin-9; in assay [8]; in assay [9]) was > 30 µM (inactive) throughout.
Turning to `COc1cc2ncnc(Nc3ccc(O)cc3)c2cc1OC` [WHI-P131], the Kd (in assay [1]; in assay [2]; on dCTP pyrophosphatase 1; in [3]; in assay [4]; in assay [5]) was > 30 µM (inactive) each time. The Kd (in assay [6]; in assay [7]; on Septin-9; in assay [8]; in assay [9]) was > 30 µM (inactive) each time.
On to `CC[C@@](C)(Nc1ccnc(-c2c[nH]c3ncccc23)n1)C(=O)NCC(F)(F)F` [DECERNOTINIB], for which the Kd is > 30 µM (inactive) in [1]; > 30 µM (inactive) in [2]; > 30 µM (inactive) at dCTP pyrophosphatase 1; > 30 µM (inactive) in [3]; > 30 µM (inactive) in assay [4]; 0.562 µM (active) in assay [5]. Further, the Kd (in assay [6]; in assay [7]; on Septin-9; in assay [8]; in assay [9]) was > 30 µM (inactive) throughout.
`O=S(=O)(c1cccc2c(O)nccc12)N1CCCNCC1` [HYDROXYFASUDIL]: the Kd (in assay [1]; in assay [2]; on dCTP pyrophosphatase 1; in assay [3]; in assay [4]; in assay [5]) was > 30 µM (inactive) throughout. Moreover, the Kd (in assay [6]; in assay [7]; at Septin-9; in assay [8]; in assay [9]) was > 30 µM (inactive) throughout.
As for `CCN1CCN(Cc2ccc(Nc3ncc(F)c(-c4cc(F)c5nc(C)n(C(C)C)c5c4)n3)nc2)CC1` [ABEMACICLIB], the Kd (in assay [2]; on dCTP pyrophosphatase 1; in assay [3]; in [4]; in assay [5]; in [6]) was > 30 µM (inactive) in each case. In addition, the Kd (in assay [7]; at Septin-9; in [8]; in assay [9]) was > 30 µM (inactive) each time.
For `C=CCN(/C=C1/C(=O)O[C@H](COC)[C@@]2(C)C1=C(O)C(=O)C1=C2[C@H](OC(C)=O)C[C@]2(C)C(=O)CC[C@@H]12)CC=C` [SONOLISIB], the Kd (in assay [1]; in assay [2]; at dCTP pyrophosphatase 1; in [3]; in assay [5]; in assay [6]) was > 30 µM (inactive) in each case. Also, the Kd (in assay [7]; at Septin-9; in assay [8]; in assay [9]) was > 30 µM (inactive) in each case.
Turning to `Cc1c(NC(=O)OC[C@@H]2COCCN2)cn2ncnc(Nc3ccc4c(cnn4Cc4cccc(F)c4)c3)c12` [AC-480], the Kd (in assay [1]; in [2]; on dCTP pyrophosphatase 1; in assay [3]; in assay [5]; in [6]) was > 30 µM (inactive) in each case. For the same compound, the Kd (in assay [7]; on Septin-9; in [8]; in assay [9]) was > 30 µM (inactive) throughout.
